Test results from ChEMBL document CHEMBL5385844, “Discovery of novel imidazole chemotypes as isoform-selective JNK3 inhibitors for the treatment of Alzheimer's disease” (Eur J Med Chem, 2023).
Calls of active or inactive are those of the source. The calls are words filed in the database; no cut-off is given here.

Key:
[1] = Cmax in Sprague-Dawley rat at 3 mg/kg, po measured upto 24 hrs by UPLC analysis; assay type: ADME, organism-based; set-up: dose 3 mg/kg, time < 24 hrs, route po; conditions: in vivo
Cortical neurone = test: Neuroprotective activity against Amyloid beta (1 to 42)-induced toxicity in rat cortical neuron assessed as cell viability at 20 uM measured after 48 hrs by MTT assay; assay type: functional; conditions: read-out: Activity
Mus musculus [2] = test: Anti-alzheimer activity against homozygous 3 x Tg mouse model assessed as time spent in platform quadrant at 30 mg/kg, po administered daily for 2 months and measured after 27 days of treatment by Morris water maze test (reference value: 15.68 +/- 1.65 sec); assay type: functional; conditions: 1460 h
Mus musculus [3] = test: Anti-alzheimer activity against APP/PS1 dE9 double transgenic mouse model assessed as time spent in platform quadrant at 10 mg/kg, po administered 3 times/week for 1 month and measured after 40 to 45 days of treatment by Morris water maze test (reference value: 11.06 +/- 1.53 %); assay type: functional; conditions: time 27 day
[4] = Inhibition of human SAPK2a T106 mutant assessed as incorporation of 33P-ATP
[5] = Permeability of the compound by PAMPA-BBB assay; assay type: ADME; conditions: read-out: permeability
Mus musculus [6] = test: Anti-alzheimer activity against homozygous 3 x Tg mouse model assessed as spontaneous alteration at 60 mg/kg, po administered daily for 2 month and measured after 57 days of treatment by Y-maze test (reference value: 46.81 +/- 2.76%); assay type: functional; conditions: time 2 months, 1460 h
Mus musculus [7] = test: Anti-alzheimer activity against APP/PS1 dE9 double transgenic mouse model assessed as time spent in platform quadrant at 30 mg/kg, po administered 3 times/week for 1 month and measured after 40 to 45 days of treatment by Morris water maze test (reference value: 11.06 +/- 1.53 %); assay type: functional; conditions: time 27 day
[8] = Toxicity in APP/PS1 mouse assessed as abnormal symptoms at 10 mg/kg, po treated 3 times/week for 1 month; assay type: organism-based; conditions: in vivo, 730 h, time 1 months
Mus musculus [9] = test: Anti-alzheimer activity against homozygous 3 x Tg mouse model assessed as escape latency time at 60 mg/kg, po administered daily for 2 months and measured after 60 days of treatment by Passive avoidance test (reference value: 43.44 +/- 7.35 sec); assay type: functional; conditions: 1460 h
[10] = biological target: Mitogen-activated protein kinase 10 (Rattus norvegicus) (UniProt P49187); test: Inhibition of JNK3 mediated anisomycin-induced APP phosphorylation in rat cortical neurons at 10 to 20 uM incubated for 24 hrs by Western blot analysis; assay type: cell-based; conditions: Cortical neuron, dose 10-20 µM
[11] = biological target: Mitogen-activated protein kinase 9 (Homo sapiens, UniProt P45984); test: Inhibition of human JNK2 incubated for 40 mins in presence of ATP and [gamma33P-ATP] by scintillation counting method
[12] = Tmax in Sprague-Dawley rat at 3 mg/kg, po measured upto 24 hrs by UPLC analysis; assay type: ADME, organism-based; conditions: in vivo
[13] = Toxicity in APP/PS1 mouse assessed as weight change at 10 mg/kg, po treated 3 times/week for 1 month; assay type: organism-based; conditions: in vivo, 730 h, time 1 months
[14] = Apparent permeability across basolateral to apical side in human Caco-2 cells at 10 uM incubated for 1 hr by LC-MS/MS analysis; assay type: ADME, cell-based
[15] = biological target: Mitogen-activated protein kinase 10 (Rattus norvegicus) (UniProt P49187); test: Inhibition of JNK3 in Amyloid beta (1 to 42)-induced c-Jun phosphorylation in primary rat cortex neuron assessed as decrease in c-Jun phosphorylation incubated for 24 hrs by Western blot analysis; assay type: cell-based; conditions: Primary cortical neuron, dose 10-20 µM
[16] = AUC in Sprague-Dawley rat at 1 mg/kg, iv measured upto 24 hrs by UPLC analysis; assay type: ADME, organism-based; set-up: dose 1 mg/kg, time < 24 hrs, route iv; conditions: in vivo
Mus musculus [17] = test: Anti-alzheimer activity against APP/PS1 dE9 double transgenic mouse model assessed as spontaneous alteration at 30 mg/kg, po administered 3 times/week for 1 month and measured after 27 days of treatment by Y-maze test (reference value: 46.70 +/- 3.32%); assay type: functional; conditions: time 1 months, 730 h
[18] = Efflux ratio of apparent permeability basolateral to apical side over apical to basolateral side in human Caco-2 cells at 10 uM incubated for 1 hr by LC-MS/MS analysis; assay type: ADME, cell-based
[19] = Half life in Sprague-Dawley rat at 3 mg/kg, po measured upto 24 hrs by UPLC analysis; assay type: ADME, organism-based; conditions: in vivo
[20] = biological target: Mitogen-activated protein kinase 10 (Homo sapiens, UniProt P53779); test: Inhibition of human JNK3 incubated for 40 mins in presence of ATP and [gamma33P-ATP] by scintillation counting method; conditions: read-out: IC50
[21] = biological target: T1, MAPK/MAK/MRK overlapping kinase (Homo sapiens, UniProt Q9UQ07); test: Inhibition of MOK (unknown origin) assessed as incorporation of 33P-ATP
T1 sequence (Q9UQ07 whole entry): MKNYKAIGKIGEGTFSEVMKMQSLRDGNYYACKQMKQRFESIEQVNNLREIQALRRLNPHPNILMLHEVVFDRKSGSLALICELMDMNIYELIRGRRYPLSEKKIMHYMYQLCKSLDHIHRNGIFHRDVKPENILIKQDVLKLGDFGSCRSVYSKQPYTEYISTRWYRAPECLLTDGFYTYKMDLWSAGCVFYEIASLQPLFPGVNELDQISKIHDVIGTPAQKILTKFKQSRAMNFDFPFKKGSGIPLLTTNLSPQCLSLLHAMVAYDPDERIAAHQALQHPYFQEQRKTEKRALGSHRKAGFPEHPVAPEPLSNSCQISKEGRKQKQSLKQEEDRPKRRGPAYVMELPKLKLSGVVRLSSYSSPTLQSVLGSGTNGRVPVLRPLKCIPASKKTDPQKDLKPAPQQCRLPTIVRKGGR

[22] = Half life in Sprague-Dawley rat at 1 mg/kg, iv measured upto 24 hrs by UPLC analysis; assay type: ADME, organism-based; conditions: in vivo
Mus musculus [23] = test: Anti-alzheimer activity against homozygous 3 x Tg mouse model assessed as time spent in platform quadrant at 60 mg/kg, po administered daily for 2 months and measured after 27 days of treatment by Morris water maze test (reference value: 15.68 +/- 1.65 sec); assay type: functional; conditions: 1460 h
[24] = Drug uptake in Sprague-Dawley rat brain at 30 mg/kg, po measured at Tmax; assay type: ADME, organism-based; conditions: in vivo
[25] = biological target: Glycogen synthase kinase-3 alpha (Homo sapiens, UniProt P49840); test: Inhibition of human GSK3alpha assessed as incorporation of 33P-ATP
Mus musculus [26] = test: Anti-alzheimer activity against APP/PS1 dE9 double transgenic mouse model assessed as spontaneous alteration at 10 mg/kg, po administered 3 times/week for 1 month and measured after 27 days of treatment by Y-maze test (reference value: 46.70 +/- 3.32%); assay type: functional; conditions: time 1 months, 730 h
[27] = AUC in Sprague-Dawley rat at 3 mg/kg, po measured upto 24 hrs by UPLC analysis; assay type: ADME, organism-based; set-up: time < 24 hrs, dose 3 mg/kg, route po; conditions: in vivo
[28] = biological target: Mitogen-activated protein kinase 11 (Homo sapiens, UniProt Q15759); test: Inhibition of human SAPK2b assessed as incorporation of 33P-ATP
[29] = Toxicity in APP/PS1 mouse assessed as dead animal at 30 mg/kg, po treated 3 times/week for 1 month; assay type: organism-based; conditions: in vivo, 730 h, time 1 months

Sequence of Mitogen-activated protein kinase 10 (Rattus norvegicus) (P49187 whole entry): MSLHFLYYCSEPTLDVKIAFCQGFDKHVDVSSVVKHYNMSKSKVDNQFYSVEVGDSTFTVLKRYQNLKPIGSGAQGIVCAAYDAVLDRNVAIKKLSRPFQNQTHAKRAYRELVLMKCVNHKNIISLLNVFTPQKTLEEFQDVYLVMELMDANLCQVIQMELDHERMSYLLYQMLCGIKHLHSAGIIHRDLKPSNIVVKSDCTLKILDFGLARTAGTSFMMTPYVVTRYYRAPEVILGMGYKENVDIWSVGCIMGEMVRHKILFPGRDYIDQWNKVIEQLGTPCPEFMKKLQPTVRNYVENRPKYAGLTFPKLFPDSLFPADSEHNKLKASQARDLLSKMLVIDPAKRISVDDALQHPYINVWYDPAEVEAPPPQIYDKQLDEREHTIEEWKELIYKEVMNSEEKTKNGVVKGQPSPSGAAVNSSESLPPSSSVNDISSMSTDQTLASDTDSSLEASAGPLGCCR
Sequence of Mitogen-activated protein kinase 9 (P45984 whole entry): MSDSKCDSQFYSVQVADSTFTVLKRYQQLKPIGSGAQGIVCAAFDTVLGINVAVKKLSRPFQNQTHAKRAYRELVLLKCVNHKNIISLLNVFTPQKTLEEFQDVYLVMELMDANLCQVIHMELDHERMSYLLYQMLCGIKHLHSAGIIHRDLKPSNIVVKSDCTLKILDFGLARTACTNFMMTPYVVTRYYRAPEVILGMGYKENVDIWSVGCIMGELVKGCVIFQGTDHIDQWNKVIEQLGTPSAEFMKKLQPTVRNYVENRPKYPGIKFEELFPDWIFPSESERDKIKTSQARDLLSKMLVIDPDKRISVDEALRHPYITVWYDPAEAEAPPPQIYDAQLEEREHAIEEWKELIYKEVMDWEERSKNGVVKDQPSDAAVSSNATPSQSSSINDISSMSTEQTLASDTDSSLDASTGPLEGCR
Sequence of Glycogen synthase kinase-3 alpha (P49840 whole entry): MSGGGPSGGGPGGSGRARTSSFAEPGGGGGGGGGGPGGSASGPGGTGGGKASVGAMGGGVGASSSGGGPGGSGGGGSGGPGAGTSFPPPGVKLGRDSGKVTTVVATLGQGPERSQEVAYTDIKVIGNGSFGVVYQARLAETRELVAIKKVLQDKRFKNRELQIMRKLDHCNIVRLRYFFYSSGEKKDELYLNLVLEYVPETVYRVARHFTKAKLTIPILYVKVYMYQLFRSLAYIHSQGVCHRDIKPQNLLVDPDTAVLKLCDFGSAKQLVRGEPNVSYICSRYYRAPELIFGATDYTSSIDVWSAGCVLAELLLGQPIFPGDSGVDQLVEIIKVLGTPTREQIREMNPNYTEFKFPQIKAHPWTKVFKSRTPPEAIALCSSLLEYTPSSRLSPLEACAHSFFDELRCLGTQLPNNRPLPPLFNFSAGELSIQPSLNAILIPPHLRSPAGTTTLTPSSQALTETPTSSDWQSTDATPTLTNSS
Sequence of Mitogen-activated protein kinase 10 (P53779 whole entry): as the sequence (P49187 whole entry) above, with H27Q, S32Y, V33I, V34A counted along it
Sequence of Mitogen-activated protein kinase 11 (Q15759 whole entry): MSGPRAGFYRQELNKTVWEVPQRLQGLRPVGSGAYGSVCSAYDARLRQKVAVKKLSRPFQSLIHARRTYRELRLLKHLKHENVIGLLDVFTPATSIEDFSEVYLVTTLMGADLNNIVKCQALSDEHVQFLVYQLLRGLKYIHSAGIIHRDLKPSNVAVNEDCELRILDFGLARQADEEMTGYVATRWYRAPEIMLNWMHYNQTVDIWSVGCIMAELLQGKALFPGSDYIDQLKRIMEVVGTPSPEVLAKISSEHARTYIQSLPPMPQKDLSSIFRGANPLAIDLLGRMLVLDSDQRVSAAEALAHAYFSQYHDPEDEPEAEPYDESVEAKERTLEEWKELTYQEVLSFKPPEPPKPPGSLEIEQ

N#CCc1cnc(-c2ccc3ccccc3c2)n1-c1ccnc(N[C@H]2CCCN(C(=O)C3CC3)C2)n1
Cmax [1]: 378 ng/mL
viability at 20 µM (Cortical neurone): 46.8%
Time (Mus musculus [2]): 13.24 s
Time (Mus musculus [3]): 10.53 s
IC50 [4]: 1190 nM
Papp [5]: 28.5 ×10⁻⁶ cm/s
Activity (Mus musculus [6]): 56.55%
Time (Mus musculus [7]): 15.06 s
Activity [8]: Non-Toxic
Time (Mus musculus [9]): 59.82 s
inhibition [10]: Active
IC50 [11]: 144 nM
Tmax [12]: 37.8 min
Activity [13]: Non-Toxic
Papp B→A at 1 h, 10 µM [14]: 26.4 ×10⁻⁶ cm/s
Activity [15]: Dose-Dependent Effect
AUC at 24 h [16]: 718 ng·h/mL
Activity (Mus musculus [17]): 56.12%
efflux ratio at 1 h, 10 µM [18]: 1.92
half-life [19]: 20.4 min
IC50 [20]: 1 nM
IC50 [21]: 1180 nM
half-life [22]: 13.2 min
Time (Mus musculus [23]): 15.55 s
Drug uptake [24]: 26 ng/g
IC50 [25]: 5780 nM
Activity (Mus musculus [26]): 52.31%
AUC at 24 h [27]: 338 ng·h/mL
IC50 [28]: 280 nM
Activity [29]: Non-Toxic
